Test results published in article PMC6976883, “Detection in two hospitals of transferable ceftazidime-avibactam resistance in Klebsiella pneumoniae due to a novel VEB β-lactamase variant with a Lys234Arg substitution, Greece, 2019” (Eurosurveillance, 2020).

Biological target: T1, VEB-1 (Escherichia coli, UniProt Q7BVU7)
T1 construct: gene blaVEB; natural plasmid-encoded enzyme, no tags; crude cell extracts of E. coli K12 26R793 transconjugants TrcS-2865 (VEB-1) and TrcE-1037 (VEB-25, GenBank MN862699), which also contain OXA-10 and TEM-1
Test: spectrophotometric inhibition of ceftazidime hydrolysis
Assay type: biochemical

`NC(=O)[C@@H]1CC[C@@H]2CN1C(=O)N2OS(=O)(=O)O` [avibactam] showed an IC50 of 0.1 nM.
